Test results from patent US20060079453A1, “Hla binding peptides and their uses” (priority 2002, published 2006).
pIC50: −log10 of the molar value. Like-named read-outs stand apart in the source and are kept apart here. No end group written: not given here.

Legend:
[1] = target: HLA-A*3002 (Homo sapiens, UniProt P04439, D101N/D140H/D185E/E176R/F33S/G80R/H175R/K168Q/Q94H/R138E/R41S/V100E); test: biochemical; format: binding
[2] = target: HLA-A*6802 (Homo sapiens, UniProt P04439, A269V/D140Y/D185E/E176V/E277Q/E87N/F33Y/G231S/I121R/I166T/I218V/L180W/L300P/L318F/N151K/P208A/P217A/Q86R/R138H/R169H/S129P/T345S/V36M); test: biochemical; format: binding
[3] = target: HLA-A*2902 (Homo sapiens, UniProt P04439, A270S/D101N/D185E/E176V/E277Q/E87Q/F33T/G231S/H175R/I121M/I218V/I322F/K168Q/L300P/L318F/M331R/P208A/P217A/Q86L/T323A/T345S/V100A/V358M); test: MHC molecular binding / Capture assay, IC50: A*2902
[4] = target: HLA-A*0202 (Homo sapiens, UniProt P04439, D140Y/D185E/D98H/E176V/E277Q/G131W/G231S/I119L/I121R/I166T/I218V/L180W/L300P/L318F/N151K/N90K/P208A/P217A/Q67R/Q86G/Q94H/R138H/R169H/T345S); test: biochemical; format: binding
[5] = target: HLA-A*0203 (Homo sapiens, UniProt P04439, A173T/D140Y/D185E/D98H/E277Q/G131W/G231S/I119V/I121R/I166T/I218V/L180W/L300P/L318F/N151K/N90K/P208A/P217A/Q86G/Q94H/R138H/R169H/T345S); test: biochemical; format: binding
[6] = target: HLA-A*0206 (Homo sapiens, UniProt P04439, D140Y/D185E/D98H/E176V/E277Q/F33Y/G131W/G231S/I119V/I121R/I166T/I218V/L300P/L318F/N151K/N90K/P208A/P217A/Q86G/Q94H/R138H/R169H/T345S); test: biochemical; format: binding
[7] = A*6802 binding affinity (expressed as an IC50)
[8] = A*0202 binding affinity (expressed as an IC50)
[9] = A*0203 binding affinity (expressed as an IC50)
[10] = A*0206 binding affinity (expressed as an IC50)
[11] = Binding affinity to A*2902 (expressed as an IC50)
[12] = Binding affinity to A*3002 (expressed as an IC50)

With ITEYRHYNY as the compound, how does the pIC50 [1] read?
The pIC50 was 6.38.

FPFKYAAAV was tested. Which pIC50 [2, 7] did it give?
Its pIC50 is 7.04.

What does the source list for LFVVYRDSF?
pIC50 [3]: 6.04; pIC50 [1]: 7.74

How did the pIC50 [4, 8] turn out when SLGPGPGIAV was run?
Its pIC50 is 8.28.

And the pIC50 [5, 9]?
Its pIC50 is 7.96.

What about the pIC50 [6, 10] of the same compound?
The pIC50 was 6.04.

And the pIC50 [2, 7]?
Its pIC50 is 6.55.

How did the pIC50 [4, 8] turn out when `CC[C@H](C)[C@H](NC(=O)[C@H](Cc1ccc(O)cc1)NC(=O)[C@H](Cc1ccccc1)NC(=O)[C@H](CCCNC(=N)N)NC(=O)[C@H](CC(N)=O)NC(=O)[C@H](CCSC)NC(=O)[C@@H](N)Cc1ccccc1)C(=O)N[C@H](C(=O)N[C@H](C(=O)O)[C@@H](C)O)[C@@H](C)O` was run?
The pIC50 was 7.74.

And the pIC50 [6, 10]?
The pIC50 was 6.00.

What about the pIC50 [2, 7] of the same compound?
The pIC50 was 5.18.

What does the source list for `CC[C@H](C)[C@H](NC(=O)[C@@H](N)C(C)C)C(=O)N[C@@H](CS)C(=O)N[C@@H](CO)C(=O)N[C@@H](Cc1ccccc1)C(=O)N[C@@H](CC(C)C)C(=O)N[C@H](C(=O)N[C@@H](Cc1ccccc1)C(=O)N[C@@H](CC(C)C)C(=O)N[C@H](C(=O)O)C(C)C)C(C)C`?
pIC50 [4, 8]: 6.38; pIC50 [5, 9]: 5.54; pIC50 [6, 10]: 6.71; pIC50 [2, 7]: 5.71

With FGVRPQVPL as the compound, how does the pIC50 [2] read?
Its pIC50 is 6.49.

With SSFFMNRFY as the compound, how does the pIC50 [3, 11] read?
Its pIC50 is 7.44.

What about the pIC50 [1, 12] of the same compound?
The pIC50 was 8.12.

How did the pIC50 [4, 8] turn out when IISAVVAIL was run?
Its pIC50 is 8.10.

What about the pIC50 [5, 9] of the same compound?
The pIC50 was 7.35.

What about the pIC50 [6, 10] of the same compound?
Its pIC50 is 5.84.

And the pIC50 [2, 7]?
Its pIC50 is 6.83.

With KTYGGPGPGY as the compound, how does the pIC50 [3, 11] read?
The pIC50 was 6.64.

What about the pIC50 [1, 12] of the same compound?
The pIC50 was 8.77.

With MTGNPPIPV as the compound, how does the pIC50 [4, 8] read?
Its pIC50 is 7.96.

What about the pIC50 [5, 9] of the same compound?
Its pIC50 is 9.13.

What about the pIC50 [6, 10] of the same compound?
Its pIC50 is 7.10.

What about the pIC50 [2, 7] of the same compound?
Its pIC50 is 8.11.

How did the pIC50 [4, 8] turn out when RLPVICSFLV was run?
The pIC50 was 8.60.

What about the pIC50 [5, 9] of the same compound?
Its pIC50 is 7.48.

And the pIC50 [6, 10]?
Its pIC50 is 7.72.

What about the pIC50 [2, 7] of the same compound?
Its pIC50 is 5.04.

How did the pIC50 [3, 11] turn out when ELEASISGKY was run?
The pIC50 was 4.66.

How did the pIC50 ([3]; A*2902 binding affinity (IC50)) turn out when AYGPGPGKI was run?
Its pIC50 is less than 3.81.

And the pIC50 ([1]; A*3002 binding affinity (IC50))?
The pIC50 was 5.27.

KLTPRCVTL was tested. Which pIC50 [4] did it give?
The pIC50 was 6.82.

And the pIC50 [5]?
The pIC50 was 7.70.

And the pIC50 [6]?
Its pIC50 is 5.81.

And the pIC50 [2]?
The pIC50 was less than 4.20.

With LTDVSIACVY as the compound, how does the pIC50 [3] read?
The pIC50 was 6.12.

And the pIC50 [1]?
The pIC50 was 7.14.

MTGNPAIPV was tested. Which pIC50 [5, 9] did it give?
The pIC50 was 8.00.

KYQAVTTTL was tested. Which pIC50 ([3]; A*2902 binding affinity (IC50)) did it give?
The pIC50 was less than 3.81.

What does the source list for YLPGPGIRYPL?
pIC50 [4]: 7.70; pIC50 [5]: 5.80; pIC50 [6, 10]: 5.46

How did the pIC50 ([1]; read-out: Binding affinity to A*3002 (expressed as an IC50)) turn out when LSEYYDXD1Y was run?
The pIC50 was 6.31.

How did the pIC50 [3, 11] turn out when `CC(C)C[C@H](NC(=O)[C@H](Cc1c[nH]cn1)NC(=O)[C@H](CC(C)C)NC(=O)[C@H](CCCCN)NC(=O)[C@H](CCCNC(=N)N)NC(=O)CNC(=O)[C@H](Cc1ccc(O)cc1)NC(=O)[C@@H](NC(=O)[C@@H](N)CCCCN)[C@@H](C)O)C(=O)N[C@@H](Cc1ccc(O)cc1)C(=O)O` was run?
The pIC50 was 7.57.

And the pIC50 [1, 12]?
The pIC50 was 8.82.
